Measured values taken from PubChem BioAssay (NCI).
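In this assay, cells in 96-well plates receive the compound at five concentrations for 48 hours. Endpoints are linearly interpolated between the surrounding concentrations. TGI marks complete inhibition of growth.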

Columns and labels:
Test in all cases: NCI tumour cell line growth inhibition, 48 h
A549 NSCLC = tested on: A549 NSCLC
HL-60(TB) leukemia = tested on: HL-60(TB) leukemia
SNB-19 CNS = tested on: SNB-19 CNS
SK-OV-3 ovarian = tested on: SK-OV-3 ovarian
NCI-H522 lung = tested on: NCI-H522 lung
SN12C renal = tested on: SN12C renal
OVCAR-4 ovarian = tested on: OVCAR-4 ovarian
OVCAR-8 ovarian = tested on: OVCAR-8 ovarian
CCRF-CEM leukemia = tested on: CCRF-CEM leukemia
SF-268 CNS = tested on: SF-268 CNS
SW-620 colon = tested on: SW-620 colon
T-47D breast = tested on: T-47D breast
EKVX NSCLC = tested on: EKVX NSCLC
U251 CNS = tested on: U251 CNS
COLO 205 colon = tested on: COLO 205 colon
TK-10 renal = tested on: TK-10 renal
NCI/ADR-RES ovarian = tested on: NCI/ADR-RES ovarian
HT29 colon = tested on: HT29 colon
SK-MEL-5 melanoma = tested on: SK-MEL-5 melanoma
UO-31 renal = tested on: UO-31 renal
MDA-MB-435 = tested on: MDA-MB-435
MCF7 breast = tested on: MCF7 breast
HOP-92 NSCLC = tested on: HOP-92 NSCLC
NCI-H23 lung = tested on: NCI-H23 lung
SK-MEL-2 melanoma = tested on: SK-MEL-2 melanoma
SR leukemia = tested on: SR leukemia
MDA-MB-231 breast = tested on: MDA-MB-231 breast
M14 melanoma = tested on: M14 melanoma
HCT-15 colon = tested on: HCT-15 colon
KM12 colon = tested on: KM12 colon
A498 renal = tested on: A498 renal
RXF 393 renal = tested on: RXF 393 renal
HOP-62 NSCLC = tested on: HOP-62 NSCLC
PC-3 prostate = tested on: PC-3 prostate
OVCAR-5 ovarian = tested on: OVCAR-5 ovarian
UACC-257 melanoma = tested on: UACC-257 melanoma
CAKI-1 renal = tested on: CAKI-1 renal
786-0 renal = tested on: 786-0 renal
NCI-H226 lung = tested on: NCI-H226 lung
K-562 leukemia = tested on: K-562 leukemia
UACC-62 melanoma = tested on: UACC-62 melanoma
IGROV1 ovarian = tested on: IGROV1 ovarian
OVCAR-3 ovarian = tested on: OVCAR-3 ovarian
HCC-2998 colon = tested on: HCC-2998 colon
HS 578T breast = tested on: HS 578T breast
BT-549 breast = tested on: BT-549 breast
SF-539 CNS = tested on: SF-539 CNS
RPMI-8226 leukemia = tested on: RPMI-8226 leukemia
HCT-116 colon = tested on: HCT-116 colon
MOLT-4 leukemia = tested on: MOLT-4 leukemia
ACHN renal = tested on: ACHN renal
SF-295 CNS = tested on: SF-295 CNS
DU-145 prostate = tested on: DU-145 prostate
SK-MEL-28 melanoma = tested on: SK-MEL-28 melanoma
NCI-H460 lung = tested on: NCI-H460 lung

Measured: TGI

CC(C)(C)OC(=O)N(CCCN)CCCCN
> 100 µM: all assays above
